The structures appear in SMILES notation. Where only a bound is given, the exact number is not on record here.

One may read the EC50 as the concentration at which the effect is half-maximal.

The target of this experiment is Nicotinamide phosphoribosyltransferase (Homo sapiens, UniProt P43490). The experiment can be described thus: Enzyme Assay and NMN Detection: NAMPT reaction was performed in 50 mM HEPES, pH 7.5, containing 5 mM MgCl2, 0.1% Prionex, 0.005% Tween 20, and 1 mM TCEP at room temperature in Greiner 384-well black polypropylene plates. […] Following 2 h incubation the reaction was stopped by addition 2.5 ul 20% acetophenone in dimethyl sulfoxide (DMSO) and 2.5 ul 2 MKOH. Plates were centrifuges and added with 10.5 ul 88% formic acid. […] The increased concentration of NMN was determined from a calibration curve obtained at the time of experiment.
Chain of Nicotinamide phosphoribosyltransferase (P43490 whole entry): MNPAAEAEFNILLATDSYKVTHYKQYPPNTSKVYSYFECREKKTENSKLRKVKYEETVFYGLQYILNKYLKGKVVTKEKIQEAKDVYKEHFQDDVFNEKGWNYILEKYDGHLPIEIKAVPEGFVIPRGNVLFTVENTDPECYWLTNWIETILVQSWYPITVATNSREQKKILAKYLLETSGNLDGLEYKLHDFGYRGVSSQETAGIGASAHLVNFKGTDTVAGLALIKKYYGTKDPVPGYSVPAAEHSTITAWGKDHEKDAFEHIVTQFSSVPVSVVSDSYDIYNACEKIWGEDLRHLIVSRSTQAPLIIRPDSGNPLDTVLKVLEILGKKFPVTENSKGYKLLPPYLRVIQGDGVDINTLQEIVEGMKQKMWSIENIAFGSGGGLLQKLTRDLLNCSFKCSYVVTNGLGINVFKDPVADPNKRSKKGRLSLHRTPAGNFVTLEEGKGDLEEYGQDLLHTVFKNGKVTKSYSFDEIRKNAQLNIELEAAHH
Consider `CCOC(=O)c1ccc(NC(=O)NCc2ccncc2)nc1`, for which the EC50 is greater than 20 µM.

On to `CCOC(=O)c1ccc(NC(=O)NCc2ccncc2)cn1`, for which the EC50 is greater than 20 µM.

The compound `NC(=O)c1ccc(NC(=O)NCc2ccncc2)nc1` showed an EC50 greater than 20 µM.

The values are drawn from ChEMBL document CHEMBL5729331, “Small molecule activators of nicotinamide phosphoribosyltransferase (NAMPT) and uses thereof” (2022).
